Source: paper PMC8634879, “Design, Synthesis, and Biological Evaluation of Pyrano[2,3-c]-pyrazole–Based RalA Inhibitors Against Hepatocellular Carcinoma” (Frontiers in Chemistry, 2021)

Columns and labels:
[1] = system: Huh-7 cells; experiment: Cell proliferation assay (MTT), Huh-7; type: cell-based; details: Homo sapiens, Table 1, cell proliferation inhibition, read-out: IC50 (μM) Huh7
Method: (§1) The antibodies recognizing LC3, p62/SQSTM1, RalA, RalB, and GAPDH were purchased from Proteintech (Wuhan, China). HCC cell lines, including HepG2, Hep3B, Huh-7, and SMMC-7721, were obtained from the Chinese Center for Type Culture Collection (Wuhan, China) and cultured in DMEM (Dulbecco’s modified Eagle’s medium) with 10% FBS (fetal bovine serum) and streptomycin. Cytotoxicity assays were performed by using the MTT method as previously described.
(§2) The in vitro RalA/B bioactivity assays were performed following methods outlined in previous reports. ([Yan et al., 2016]; [Zhang et al., 2018]; [Walsh et al., 2019]; [Bum-Erdene et al., 2020]). In brief, the lysates of the test compound or vehicle-treated cells were cleared using cold centrifugation, and supernatants were collected. An RalBP1 solution was added to 96-well plates and incubated for 1–2 h, and then the plates were washed thrice using ELISA buffer. Next, cellular lysates were added, and samples were incubated overnight at 4°C. Then, ice-cold mouse anti-FLAG antibody was added, and samples were incubated for one more hour. After subsequent washing with ELISA buffer thrice, the HRP-conjugated anti-mouse antibody was added, and samples were incubated for another hour. Then, the HRP substrate was added. Antigen–antibody reactions were quenched by the addition of sulfuric acid (2 mol/L). Remaining RalA/B was detected by the OD450 values which were collected by using a plate reader. Cell proliferation assays, colony formation assays, apoptosis assays, GST pulldown, and Western blotting were used following methods outlined in our previous reports. ([Zhou et al., 2015]; [Zhang et al., 2016]; [Yang et al., 2017]; [He et al., 2019]). Autophagy levels and protein immunoblotting were used following the methods mentioned in our previous reports ([Pan et al., 2018]; [Wang et al., 2018]; [Hao et al., 2019]; [Wang et al., 2019]; [Peng et al., 2020]). Detailed experimental procedures are described in supporting materials.

[2] = target: T1, RalA (Homo sapiens, UniProt P11233); experiment: ELISA-based RalA activity assay (RalBP1-coated plates, lysates of compound-treated cells); type: biochemical; details: 1 μM compound; % control = activity remained
T1 construct: expressed in transfected cells; host or cells: HepG2 (from b6; the methods paragraph names no cell line)
T1 sequence (P11233 1-203 limits assumed): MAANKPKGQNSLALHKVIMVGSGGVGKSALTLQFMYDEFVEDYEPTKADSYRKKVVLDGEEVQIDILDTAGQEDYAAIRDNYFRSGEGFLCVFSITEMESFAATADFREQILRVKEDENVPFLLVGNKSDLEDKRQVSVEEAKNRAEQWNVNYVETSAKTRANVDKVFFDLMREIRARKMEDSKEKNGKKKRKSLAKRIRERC
Method: as §2

[3] = system: HepG2 cells; experiment: Cell proliferation assay (MTT), HepG2; type: cell-based; details: Homo sapiens, HepG2, Table 1, cell proliferation inhibition; read-out: IC50 (μM) HepG2
Method: as §1, §2

[4] = target: T2, RalB (Homo sapiens, UniProt P11234); experiment: ELISA-based RalB activity assay (RalBP1-coated plates, lysates of compound-treated cells); type: biochemical; details: 1 μM compound; % control = active (RalBP1-bound) RalB remaining
T2 construct: expressed in transfected cells; host or cells: HepG2 (from b6; the methods paragraph names no cell line)
T2 sequence (P11234 1-203 limits assumed): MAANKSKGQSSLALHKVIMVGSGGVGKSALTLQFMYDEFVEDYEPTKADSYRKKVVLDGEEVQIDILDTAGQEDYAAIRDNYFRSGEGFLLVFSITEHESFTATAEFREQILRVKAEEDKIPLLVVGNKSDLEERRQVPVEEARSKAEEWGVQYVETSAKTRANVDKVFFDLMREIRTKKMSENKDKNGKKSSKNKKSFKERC
Method: as §2

Compound | melting point | IC50 [1] | remaining activity at 1 µM [2] | IC50 [3] | remaining activity at 1 µM [4]
Cc1ccc(S(=O)(=O)NC2=C(C#N)C(c3ccccc3)c3c(C)nn(-c4ccccc4)c3O2)cc1 (stereo not drawn) [4a, N-(5-cyano-3-methyl-1,4-diphenyl-1,4-dihydropyrano[2,3-c]-pyrazole-6-yl)-4-methylbenzenesulfonamide] | 68.3 to 69.7 °C | > 10 µM | 74% | > 10 µM | 85%
COc1cccc(C2C(C#N)=C(NS(=O)(=O)c3cccc([N+](=O)[O-])c3)Oc3c2c(C)nn3-c2ccccc2Cl)c1 (stereo not drawn) [4aa, N-(1-(2-chlorophenyl)-5-cyano-4-(3-methoxyphenyl)-3-methyl-1,4-dihydropyrano[2,3-c]-pyrazol-6-yl)-3-nitrobenzenesulfonamide] |  | > 10 µM | 72% | > 10 µM | 73%
COc1cccc(C2C(C#N)=C(NS(=O)(=O)c3ccc([N+](=O)[O-])cc3)Oc3c2c(C)nn3-c2ccccc2Cl)c1 (stereo not drawn) [4ab, N-(1-(2-chlorophenyl)-5-cyano-4-(3-methoxyphenyl)-3-methyl-1,4-dihydropyrano[2,3-c]-pyrazol-6-yl)-4-nitrobenzenesulfonamide] |  | > 10 µM | 60% | > 10 µM | 65%
Cc1ccc(S(=O)(=O)NC2=C(C#N)C(c3ccccc3)c3c(C)nn(-c4ccc(Cl)cc4)c3O2)cc1 (stereo not drawn) [4ac, N-(1-(4-chlorophenyl)-5-cyano-3-methyl-4-phenyl-1,4-dihydropyrano[2,3-c]-pyrazol-6-yl)-4-methylbenzenesulfonamide] | 181.4 to 181.7 °C | > 10 µM | 67% | > 10 µM | 68%
Cc1ccc(S(=O)(=O)NC2=C(C#N)C(c3ccccc3)c3c(C)nn(-c4ccccc4Cl)c3O2)cc1 (stereo not drawn) [4ad, N-(1-(2-chlorophenyl)-5-cyano-3-methyl-4-phenyl-1,4-dihydropyrano[2,3-c]-pyrazol-6-yl)-4-methylbenzenesulfonamide] | 77.4 to 78 °C | > 10 µM | 52% | > 10 µM | 64%
Cc1ccc(-n2nc(C)c3c2OC(NS(=O)(=O)c2ccc(C)cc2)=C(C#N)C3c2ccccc2)cc1 (stereo not drawn) [4ae, N-(5-cyano-3-methyl-4-phenyl-1-(p-tolyl)-1,4-dihydro-pyrano[2,3-c]-pyrazol-6-yl)-4-methylbenzenesulfonamide] | 142.5 to 143 °C | > 10 µM | 79% | > 10 µM | 78%
Cc1ccc(S(=O)(=O)NC2=C(C#N)C(c3ccccc3)c3c(C)nn(-c4ccc(F)cc4)c3O2)cc1 (stereo not drawn) [4ag, N-(5-cyano-1-(4-fluorophenyl)-3-methyl-4-phenyl-1,4-dihydropyrano[2,3-c]-pyrazol-6-yl)-4-methylbenzenesulfonamide] | 138.6 to 139.3 °C | > 10 µM | 66% | > 10 µM | 75%
Cc1ccc(C2C(C#N)=C(NS(=O)(=O)c3ccc(C)cc3)Oc3c2c(C)nn3-c2ccccc2)cc1 (stereo not drawn) [4b, N-(5-cyano-3-methyl-1-phenyl-4-(p-tolyl)-1,4-dihydropyrano[2,3-c]-pyrazol-6-yl)-4-methylbenzenesulfonamide] | 74.7 to 75 °C | > 10 µM | 75% | > 10 µM | 105%
Cc1ccc(S(=O)(=O)NC2=C(C#N)C(c3cccc(Cl)c3)c3c(C)nn(-c4ccccc4)c3O2)cc1 (stereo not drawn) [4c, N-(4-(3-chlorophenyl)-5-cyano-3-methyl-1-phenyl-1,4-dihydropyrano[2,3-c]-pyrazol-6-yl)-4-methylbenzenesulfonamide] | 68.4 to 69 °C | > 10 µM | 40% | 7.28 ± 0.64 µM | 69%
Cc1ccc(S(=O)(=O)NC2=C(C#N)C(c3ccc(Br)cc3)c3c(C)nn(-c4ccccc4)c3O2)cc1 (stereo not drawn) [4d, N-(4-(4-bromophenyl)-5-cyano-3-methyl-1-phenyl-1,4-dihydropyrano[2,3-c]-pyrazol-6-yl)-4-methylbenzenesulfonamide] | 101.6 to 102.3 °C | > 10 µM | 77% | > 10 µM | 89%
Cc1ccc(S(=O)(=O)NC2=C(C#N)C(c3ccc(F)cc3)c3c(C)nn(-c4ccccc4)c3O2)cc1 (stereo not drawn) [4e, N-(5-cyano-4-(4-fluorophenyl)-3-methyl-1-phenyl-1,4-dihydropyrano[2,3-c]-pyrazol-6-yl)-4-methylbenzenesulfonamide] | 113 to 113.5 °C | > 10 µM | 74% | > 10 µM | 76%
Cc1ccc(S(=O)(=O)NC2=C(C#N)C(c3cccc(Br)c3)c3c(C)nn(-c4ccccc4)c3O2)cc1 (stereo not drawn) [4f, N-(4-(3-bromophenyl)-5-cyano-3-methyl-1-phenyl-1,4-dihydropyrano[2,3-c]-pyrazol-6-yl)-4-methylbenzenesulfonamide] | 68.4 to 69.5 °C | > 10 µM | 47% | 8.83 ± 0.75 µM | 71%
Cc1ccc(S(=O)(=O)NC2=C(C#N)C(c3ccc(Cl)c(Cl)c3)c3c(C)nn(-c4ccccc4)c3O2)cc1 (stereo not drawn) [4g, N-(5-cyano-4-(3,4-dichlorophenyl)-3-methyl-1-phenyl-1,4-dihydropyrano[2,3-c]-pyrazol-6-yl)-4-methylbenzenesulfonamide] |  | > 10 µM | 66% | > 10 µM | 58%
Cc1ccc(S(=O)(=O)NC2=C(C#N)C(c3ccc(Br)cc3F)c3c(C)nn(-c4ccccc4)c3O2)cc1 (stereo not drawn) [4h, N-(4-(4-bromo-2-fluorophenyl)-5-cyano-3-methyl-1-phen-yl-1,4-dihydropyrano[2,3-c]-pyrazol-6-yl)-4-methylbenzenesulfonamide] | 73.6 to 77.4 °C | > 10 µM | 70% | > 10 µM | 83%
COc1ccc(C2C(C#N)=C(NS(=O)(=O)c3ccc(C)cc3)Oc3c2c(C)nn3-c2ccccc2)cc1 (stereo not drawn) [4i, N-(5-cyano-4-(4-methoxyphenyl)-3-methyl-1-phenyl-1,4-dihydropyrano[2,3-c]-pyrazol-6-yl)-4-methylbenzenesulfonamide] | 145.2 to 146 °C | > 10 µM | 69% | > 10 µM | 60%
Cc1ccc(S(=O)(=O)NC2=C(C#N)C(c3cccnc3)c3c(C)nn(-c4ccccc4Cl)c3O2)cc1 (stereo not drawn) [4t, N-(1-(2-chlorophenyl)-5-cyano-3-methyl-4-(pyridin-3-yl)-1,4-dihydropyrano[2,3-c]-pyrazol-6-yl)-4-methylbenzenesulfonamide] |  | > 10 µM | 46% | 8.28 ± 0.89 µM | 65%
COc1ccc(S(=O)(=O)NC2=C(C#N)C(c3cccc(OC)c3)c3c(C)nn(-c4ccccc4Cl)c3O2)cc1 (stereo not drawn) [4y, N-(1-(2-chlorophenyl)-5-cyano-4-(3-methoxyphenyl)-3-methyl-1,4-dihydropyrano[2,3-c]-pyrazol-6-yl)-4-methoxybenzenesulfonamide] |  | > 10 µM | 54% | > 10 µM | 73%
COc1cccc(C2C(C#N)=C(NS(=O)(=O)c3ccccc3[N+](=O)[O-])Oc3c2c(C)nn3-c2ccccc2Cl)c1 (stereo not drawn) [4z, N-(1-(2-chlorophenyl)-5-cyano-4-(3-methoxyphenyl)-3-methyl-1,4-dihydropyrano[2,3-c]-pyrazol-6-yl)-2-nitrobenzenesulfonamide] |  | > 10 µM | 53% | > 10 µM | 60%
